The record followed here is article PMC5259734, “Identification of Key Residues for Urate Specific Transport in Human Glucose Transporter 9 (hSLC2A9)” (Scientific Reports, 2017).

Structures are written as SMILES.

Common to all, as to assay type: cell-based
Assay [1] deals with T1, hSLC2A9b (human glucose transporter 9) (Homo sapiens, UniProt Q9NRM0).
T1 construct: gene SLC2A9; hSLC2A9b isoform (shorter N-terminus), WT
T1 sequence (Q9NRM0 1-511 isoform Q9NRM0-2 limits assumed): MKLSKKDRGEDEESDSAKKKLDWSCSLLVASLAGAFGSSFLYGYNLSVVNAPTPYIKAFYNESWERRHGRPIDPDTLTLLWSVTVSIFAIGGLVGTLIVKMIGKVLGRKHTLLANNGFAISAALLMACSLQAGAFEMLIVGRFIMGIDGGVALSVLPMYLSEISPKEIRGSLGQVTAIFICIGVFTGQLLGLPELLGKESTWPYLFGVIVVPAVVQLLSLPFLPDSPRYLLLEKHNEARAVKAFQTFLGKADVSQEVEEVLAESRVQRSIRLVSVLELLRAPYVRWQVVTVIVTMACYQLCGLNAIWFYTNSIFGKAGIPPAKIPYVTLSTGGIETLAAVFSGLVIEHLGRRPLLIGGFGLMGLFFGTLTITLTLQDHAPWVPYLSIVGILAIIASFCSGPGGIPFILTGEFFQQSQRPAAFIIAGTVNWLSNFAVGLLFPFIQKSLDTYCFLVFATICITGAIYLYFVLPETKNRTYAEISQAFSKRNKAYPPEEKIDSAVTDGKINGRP
The assay is described as follows: […] fructose uptake in Xenopus oocytes.

Assay [2] concerns the target T1, hSLC2A9b (human glucose transporter 9). Put plainly: TEVC inhibition of urate-induced current and […] urate flux in Xenopus oocytes.
Assay [3] has the same target. Put plainly: […] urate flux kinetics and TEVC in Xenopus oocytes.

Consider `OC[C@H]1OC(O)(CO)[C@@H](O)[C@@H]1O` (stereo partly drawn) [fructose], for which the “14C fructose uptake in Xenopus oocytes” value in assay [1] was “all mutants transported fructose similarly as WT hSLC2A9b”.

As for `O=S(=O)(O)c1cc[c]([Hg][Cl])cc1` [pCMBS], the IC50 in assay [2] was found to be 52.5 µM. This counts as double-digit micromolar.

In the case of `O=c1[nH]c(=O)c2[nH]c(=O)[nH]c2[nH]1` [urate], in assay [3], the “14C urate flux kinetics and TEVC in Xenopus oocytes” value was “both WT hSLC2A9b and its cysteine mutants exhibited Michaelis-Menten type kinetics for urate transport”.
